Test results from ChEMBL document CHEMBL4823300, “Design, synthesis and anticancer activity of sulfenylated imidazo-fused heterocycles” (Bioorg Med Chem Lett, 2021).
Activity calls are given as the source filed them. The rule behind the calls is not given here.

Columns and labels:
DU-145 = experiment: Anticancer activity against human DU-145 cells assessed as growth inhibition incubated for 48 hrs by MTT assay; format: functional, cell-based; details: DU-145, 48 h
MDA-MB-231 = experiment: Anticancer activity against human MDA-MB-231 cells assessed as growth inhibition incubated for 48 hrs by MTT assay; format: functional, cell-based; details: MDA-MB-231, 48 h
SK-MEL-28 = experiment: Anticancer activity against human SK-MEL-28 cells assessed as growth inhibition incubated for 48 hrs by MTT assay; format: functional, cell-based; details: SK-MEL-28, 48 h
HeLa = experiment: Anticancer activity against human HeLa cells assessed as growth inhibition incubated for 48 hrs by MTT assay; format: functional, cell-based
U-87 MG = experiment: Anticancer activity against human U-87 MG cells assessed as growth inhibition incubated for 48 hrs by MTT assay; format: functional, cell-based, U-87MG ATCC
HepG2 [1] = experiment: Anticancer activity against human HepG2 cells assessed as growth inhibition incubated for 48 hrs by MTT assay; format: functional, cell-based; details: HepG2, 48 h
HepG2 [2] = experiment: Cell cycle arrest in human HepG2 cells assessed as accumulation at G0/G1 phase at 5 uM (reference value: 92.33%); format: functional
HepG2 [3] = experiment: Induction of apoptosis in human HepG2 cells assessed as live cells at 5 uM incubated for 48 hrs by annexin V-FITC/propidium iodide (AV/PI) dual staining assay (reference value: 91.01%); format: functional
NIH3T3 = experiment: Anticancer activity against mouse NIH3T3 cells assessed as growth inhibition incubated for 48 hrs by MTT assay; format: cell-based; details: NIH3T3, 48 h
HepG2 [4] = experiment: Induction of apoptosis in human HepG2 cells assessed as late apoptotic cells at 5 uM incubated for 48 hrs by annexin V-FITC/propidium iodide (AV/PI) dual staining assay (reference value: 4.07%); format: functional
HepG2 [5] = experiment: Cell cycle arrest in human HepG2 cells assessed as accumulation at S phase at 10 uM (reference value: 4.66%); format: functional
HepG2 [6] = experiment: Induction of apoptosis in human HepG2 cells assessed as nuclear condensation at 5 to 10 uM incubated for 48 hrs by Hoechst staining based assay relative to control; format: functional, cell-based; details: dose 5-10 µM
HepG2 [7] = experiment: Induction of apoptosis in human HepG2 cells assessed as necrotic cells at 5 uM incubated for 48 hrs by annexin V-FITC/propidium iodide (AV/PI) dual staining assay (reference value: 1.06%); format: functional
HepG2 [8] = experiment: Cell cycle arrest in human HepG2 cells assessed as accumulation at G0/G1 phase at 10 uM (reference value: 92.33%); format: functional
HepG2 [9] = experiment: Cell cycle arrest in human HepG2 cells assessed as accumulation at SubG1 phase at 10 uM (reference value: 7.13%); format: functional
A549 = experiment: Anticancer activity against human A549 cells assessed as growth inhibition incubated for 48 hrs by MTT assay; format: functional, cell-based; details: A549, 48 h
HepG2 [10] = experiment: Induction of apoptosis in human HepG2 cells assessed as early apoptotic cells at 5 uM incubated for 48 hrs by annexin V-FITC/propidium iodide (AV/PI) dual staining assay (reference value: 3.87%); format: functional
HepG2 [11] = experiment: Cell cycle arrest in human HepG2 cells assessed as accumulation at SubG1 phase at 5 uM (reference value: 7.13%); format: functional
HepG2 [12] = experiment: Induction of apoptosis in human HepG2 cells assessed as live cells at 10 uM incubated for 48 hrs by annexin V-FITC/propidium iodide (AV/PI) dual staining assay (reference value: 91.01%); format: functional
HEK293 = experiment: Anticancer activity against human HEK293 cells assessed as growth inhibition incubated for 48 hrs by MTT assay; format: cell-based; details: HEK293, 48 h
HepG2 [13] = experiment: Induction of apoptosis in human HepG2 cells assessed as early apoptotic cells at 10 uM incubated for 48 hrs by annexin V-FITC/propidium iodide (AV/PI) dual staining assay (reference value: 3.87%); format: functional
HepG2 [14] = experiment: Cell cycle arrest in human HepG2 cells assessed as accumulation at S phase at 5 uM (reference value: 4.66%); format: functional
HepG2 [15] = experiment: Induction of apoptosis in human HepG2 cells assessed as decrease in mitochondrial membrane potential at 5 to 10 uM incubated for 48 hrs by JC-1 staining based assay relative to control; format: functional, cell-based; details: dose 5-10 µM
HepG2 [16] = experiment: Induction of apoptosis in human HepG2 cells assessed as necrotic cells at 10 uM incubated for 48 hrs by annexin V-FITC/propidium iodide (AV/PI) dual staining assay (reference value: 1.06%); format: functional
HepG2 [17] = experiment: Induction of apoptosis in human HepG2 cells assessed as late apoptotic cells at 10 uM incubated for 48 hrs by annexin V-FITC/propidium iodide (AV/PI) dual staining assay (reference value: 4.07%); format: functional
HepG2 [18] = experiment: Cell cycle arrest in human HepG2 cells assessed as accumulation at G2/M phase at 10 uM (reference value: 3.72%); format: functional
HepG2 [19] = experiment: Cell cycle arrest in human HepG2 cells assessed as accumulation at G2/M phase at 5 uM (reference value: 3.72%); format: functional

Row | SMILES | IC50 (DU-145) | IC50 (MDA-MB-231) | IC50 (SK-MEL-28) | IC50 (HeLa) | IC50 (U-87 MG) | IC50 (HepG2 [1]) | IC50 (NIH3T3) | IC50 (A549) | IC50 (HEK293) | further results
1 | COc1cccc2c1C(=O)c1c(O)c3c(c(O)c1C2=O)C[C@@](O)(C(=O)CO)C[C@@H]3O[C@H]1C[C@H](N)[C@H](O)[C@H](C)O1 [DOXORUBICIN] | 1.4 µM | 1.6 µM | 1.8 µM | 2.1 µM | 1.7 µM | 1.8 µM |  |  |  | 
2 | c1ccc(Sc2c(-c3cccc4ccccc34)nc3ccccn23)cc1 | 60.6 µM | 69.3 µM | > 100 µM | 33.1 µM | > 100 µM | 9.9 µM | > 100 µM | 17.9 µM | > 100 µM | Activity (HepG2 [2]): 86.33%; Activity (HepG2 [3]): 77.51%; Activity (HepG2 [4]): 11.9%; Activity (HepG2 [5]): 0.36%; Activity (HepG2 [6]): Active; Activity (HepG2 [7]): 0.26%; Activity (HepG2 [8]): 70.35%; Activity (HepG2 [9]): 8.52%; Activity (HepG2 [10]): 10.32%; Activity (HepG2 [11]): 3.7%; Activity (HepG2 [12]): 55.27%; Activity (HepG2 [13]): 25.45%; Activity (HepG2 [14]): 2.54%; Activity (HepG2 [15]): Active; Activity (HepG2 [16]): 0.34%; Activity (HepG2 [17]): 18.94%; Activity (HepG2 [18]): 25.53%; Activity (HepG2 [19]): 7.29%
3 | CCc1ccc(-c2nc3ccccn3c2Sc2ccccc2)cc1 | 84.5 µM | > 100 µM | > 100 µM | 52.1 µM | 61.7 µM | 50.2 µM | > 100 µM | 56.2 µM | > 100 µM | 
4 | Clc1ccc(Sc2c(-c3cccs3)nc3ccccn23)cc1 | 92.3 µM | 73.1 µM | 77.3 µM | 74.1 µM | > 100 µM | 59.3 µM | 86.1 µM | 69.8 µM | 93 µM | 
5 | CS(=O)(=O)c1ccc(-c2nc3ccccn3c2Sc2ccccc2)cc1 | 67.8 µM | 72.7 µM | 61.9 µM | 70.6 µM | 77.2 µM | 13.2 µM | > 100 µM | 23.2 µM | > 100 µM | 
6 | COc1ccc(-c2nc3ccccn3c2Sc2ccccc2)cc1 | 76.8 µM | > 100 µM | 83.9 µM | > 100 µM | > 100 µM | 54.2 µM | 91.7 µM | 58.4 µM | > 100 µM | 
7 | Cc1ccc2nc(-c3ccc(Cl)cc3)c(Sc3ccccc3)n2c1 | 95.1 µM | 94.5 µM | 81.5 µM | 79.9 µM | > 100 µM | 63.1 µM | > 100 µM | 71.5 µM | > 100 µM | 
8 | CS(=O)(=O)c1ccc(-c2nc3ccccn3c2Sc2cccc3ccccc23)cc1 | 20.8 µM | 24.1 µM | 67.3 µM | 34.6 µM | 56.2 µM | 13.6 µM | 86.4 µM | 19.6 µM | 83.2 µM | 
9 | C(=C\c1nc2ccccn2c1Sc1ccccc1)/c1ccccc1 | 22 µM | 25.3 µM | 65.4 µM | 35.5 µM | 59.2 µM | 8.8 µM | > 100 µM | 16.3 µM | > 100 µM | Activity (HepG2 [2]): 86.58%; Activity (HepG2 [3]): 72.25%; Activity (HepG2 [4]): 11.31%; Activity (HepG2 [5]): 0.69%; Activity (HepG2 [6]): Active; Activity (HepG2 [7]): 0.34%; Activity (HepG2 [8]): 65.4%; Activity (HepG2 [9]): 8.65%; Activity (HepG2 [10]): 16.1%; Activity (HepG2 [11]): 7.64%; Activity (HepG2 [12]): 51.78%; Activity (HepG2 [13]): 25.51%; Activity (HepG2 [14]): 0.52%; Activity (HepG2 [15]): Active; Activity (HepG2 [16]): 0.2%; Activity (HepG2 [17]): 22.5%; Activity (HepG2 [18]): 30.69%; Activity (HepG2 [19]): 9.73%
10 | Clc1ccc(Sc2c(-c3ccccc3)nc3ccccn23)cc1 | 76.7 µM | 57.6 µM | 74 µM | 36.6 µM | 62.8 µM | 16.9 µM | 88.7 µM | 27.7 µM | 91.4 µM | 
11 | N#Cc1ccc(-c2nc3ccccn3c2Sc2ccccc2)cc1 | 76.5 µM | 17.8 µM | 67.5 µM | 64.2 µM | 65.5 µM | 15.7 µM | > 100 µM | 35.2 µM | > 100 µM | 
12 | Cc1ccc(-c2nc3ccccn3c2Sc2ccccc2)cc1 | 83.3 µM | > 100 µM | > 100 µM | 86.7 µM | > 100 µM | 67.9 µM | > 100 µM | 94.3 µM | > 100 µM | 
13 | Cc1ccc(-c2nc3ccc(C)cn3c2Sc2ccccc2)cc1 | 57.7 µM | 38 µM | 95.7 µM | 65.2 µM | 82.1 µM | 14.6 µM | > 100 µM | 23.8 µM | > 100 µM | 
14 | Clc1ccc2nc(-c3ccccc3)c(Sc3ccccc3)n2c1 | 56.3 µM | 55.8 µM | 76.9 µM | 29.3 µM | > 100 µM | 15.7 µM | > 100 µM | 24.4 µM | > 100 µM | 
15 | COc1cccc(OC)c1-c1nc2ccccn2c1Sc1ccccc1 | 22.4 µM | 75.6 µM | > 100 µM | 32.2 µM | > 100 µM | 19.5 µM | > 100 µM | 21.5 µM | > 100 µM | 
16 | c1ccc(Sc2c(-c3ccccc3)nc3ccc(-c4ccccc4)cn23)cc1 | 71.7 µM | 76.7 µM | > 100 µM | 72.6 µM | > 100 µM | 47.8 µM | > 100 µM | 54.2 µM | > 100 µM | 
17 | c1ccc(Sc2c(-c3ccsc3)nc3ccccn23)cc1 | 85.9 µM | 62.8 µM | 69.3 µM | 76 µM | 58.6 µM | 49.6 µM | 94.1 µM | 72.9 µM | 91.7 µM | 
18 | Clc1ccc(-c2nc3sc4ccccc4n3c2Sc2ccccc2)cc1 | 78 µM | 72.1 µM | > 100 µM | 64.1 µM | > 100 µM | 57.8 µM | > 100 µM | 75.1 µM | > 100 µM | 
19 | c1ccc(Sc2c(-c3cccs3)nc3ccccn23)cc1 | 24.1 µM | 69.2 µM | 85.3 µM | 19.9 µM | > 100 µM | 17.1 µM | > 100 µM | 16.9 µM | > 100 µM | 
20 | c1ccc(Sc2c(-c3ccccc3)nc3sc4ccccc4n23)cc1 | 45 µM | 54.9 µM | 63.2 µM | 34.2 µM | 62.6 µM | 22.3 µM | > 100 µM | 28.1 µM | > 100 µM | 
21 | Clc1ccc(-c2nc3ccccn3c2Sc2ccccc2)cc1 | 30.7 µM | 24.5 µM | 73.1 µM | 62 µM | 30.2 µM | 13.9 µM | > 100 µM | 22 µM | > 100 µM | 
